Results from patent US4650785A, “Pharmaceutical composition having an excellent absorption property” (Ajinomoto Company Incoporated, priority 1982, dated 1987).
Where a SMILES comes first, the peptide text is derived from it. [ ]: non-standard residue; d: D form. The star is where a group is joined. Cbz = O=C(OCc1ccccc1)*

How the values were obtained:
Female ICR-CD-1 mice = assay: Oral administration of absorption promoter mixed with insulin to mice: decrease in blood glucose and elevation of blood insulin versus control; assay type: in vivo; set-up: Degree of Elevation of Blood Insulin: unit not given here
Protocol: The absorption promoter samples listed in Table 2 were dissolved or suspended in 0.5% CMC-0.05M tris-HCl buffers (pH: 7.8) and the solutions or suspensions were mixed with aqueous insulin solution. Female ICR-CD-1 mice 5 to 7 weeks old were orally administered predetermined amounts of the mixtures. A predetermined duration later, the percent decrease in blood glucose and the degree of elevation of blood insulin as compared with the control group were measured. The symbol "Z" in the structural formulas in the table represents a benzyloxycarbonyl group. The upper figures in the columns "effectiveness" represent the percent decrease in blood glucose and the lower parenthesized figures indicate the degree of elevation in blood insulin.

Female CD-1(ICR) Mice = assay: Toxicity studies of phenylalanine derivatives (LD50); assay type: in vivo
Excerpt: Toxicity Studies of Phenylalanine Derivatives with Oral IN Potentiating Activity in Female CD-1(ICR) Mice are as follows:
Phenylalanine derivatives were suspended in 0.5% CMC.

[1] = oral, mice, sample 3.0 mg/10 g with insulin 2.5 U/10 g body weight, 30 minutes, vs control group
[2] = oral, mice, sample 3.0 mg/10 g with insulin 2.5 U/10 g body weight, 60 minutes, vs control group
[3] = oral, mice, sample 6.0 mg/10 g with insulin 2.5 U/10 g body weight, 30 minutes, vs control group
[4] = oral, mice, sample 6.0 mg/10 g with insulin 2.5 U/10 g body weight, 60 minutes, vs control group
[5] = oral, mice, sample 12.5 mg/10 g with insulin 2.5 U/10 g body weight, 30 minutes, vs control group
[6] = oral, mice, sample 12.5 mg/10 g with insulin 2.5 U/10 g body weight, 60 minutes, vs control group
[7] = oral, mice, sample 3.1 mg/10 g with insulin 2.5 U/10 g body weight, 30 minutes, vs control group
[8] = oral, mice, sample 3.1 mg/10 g with insulin 2.5 U/10 g body weight, 60 minutes, vs control group
[9] = female CD-1(ICR) mice, suspended in 0.5% CMC
[10] = oral, mice, sample 1.5 mg/10 g with insulin 2.5 U/10 g body weight, 30 minutes, vs control group
[11] = oral, mice, sample 1.5 mg/10 g with insulin 2.5 U/10 g body weight, 60 minutes, vs control group

Row | Structure (SMILES) | Decrease in Blood Glucose (%) (Female ICR-CD-1 mice; [2]) | Decrease in Blood Glucose (%) (Female ICR-CD-1 mice; [3]) | Degree of Elevation of Blood Insulin (Female ICR-CD-1 mice; [3]) | Decrease in Blood Glucose (%) (Female ICR-CD-1 mice; [4]) | Degree of Elevation of Blood Insulin (Female ICR-CD-1 mice; [4]) | further results
1 | O=C(NC(Cc1ccc(F)cc1)C(=O)N[C@@H](Cc1ccccc1)C(=O)O)OCc1ccccc1 (mixture of isomers) [Sample S-22, N-benzyloxycarbonyl-4-fluoro-DL-phenylalanyl-L-phenylalanine] | 51.9 | – | – | – | – | Decrease in Blood Glucose (%) (Female ICR-CD-1 mice; [1]): 63.7%
2 | O=C(N[C@@H](Cc1ccccc1)C(=O)NC(Cc1ccc(F)cc1)C(=O)O)OCc1ccccc1 (mixture of isomers) [Sample S-23, N-benzyloxycarbonyl-L-phenylalanyl-4-fluoro-DL-phenylalanine] | 39.4 | – | – | – | – | Decrease in Blood Glucose (%) (Female ICR-CD-1 mice; [1]): 67.5%
3 | O=C(COc1ccc([N+](=O)[O-])cc1)NC(Cc1ccc([N+](=O)[O-])cc1)C(=O)O (racemic) [Sample S-2, N-[(4-nitrophenoxy)acetyl]-4-nitro-DL-phenylalanine] | – | 23.2 | > 119 | 60.0 | 89.7 | –
4 | Cc1ccc(S(=O)(=O)NC(Cc2ccccc2)C(=O)O)cc1 (racemic) [Sample S-34, N-(4-toluenesulfonyl)-DL-phenylalanine] | – | 27.3 | 13.8 | 93.1 | 6.52 | –
5 | O=C(Cc1cccc2ccccc12)N[C@@H](Cc1ccccc1)C(=O)O [Sample S-1, N-[(1-naphthyl)acetyl]-L-phenylalanine] | – | 84.9 | 56.4 | 75.4 | 60.0 | –
6 | O=C(C=Cc1ccccc1)N[C@@H](Cc1ccccc1)C(=O)O [Sample S-3, N-cinnamoyl-L-phenylalanine] | – | 84.4 | 34.2 | 84.3 | 68.1 | LD50 (mg/kg) (Female CD-1(ICR) Mice; mouse, in vivo): > 2,500 mg/kg
7 | O=C(N[C@@H](Cc1ccc(OC(=O)OCc2ccccc2)cc1)C(=O)O)OCc1ccccc1 [Sample S-4, N,O-bis-(benzyloxycarbonyl)-L-tyrosine] | 31.1 | – | – | – | – | Decrease in Blood Glucose (%) (Female ICR-CD-1 mice; [1]): 52.7%; Degree of Elevation of Blood Insulin (Female ICR-CD-1 mice; [1]): 6.54; Degree of Elevation of Blood Insulin (Female ICR-CD-1 mice; [2]): 2.04
8 | O=C(COc1ccccc1)N[C@@H](Cc1ccccc1)C(=O)O [Sample S-5, N-phenoxyacetyl-L-phenylalanine] | – | – | – | – | – | Decrease in Blood Glucose (%) (Female ICR-CD-1 mice; [5]): 57.9%; Degree of Elevation of Blood Insulin (Female ICR-CD-1 mice; [5]): 88.5; Decrease in Blood Glucose (%) (Female ICR-CD-1 mice; [6]): 33.5%; Degree of Elevation of Blood Insulin (Female ICR-CD-1 mice; [6]): 18.0; LD50 (mg/kg) (Female CD-1(ICR) Mice; mouse, in vivo): > 4,000 mg/kg
9 | O=C(COc1ccccc1)N[C@@H](Cc1ccc([N+](=O)[O-])cc1)C(=O)O [Sample S-6, N-phenoxyacetyl-4-nitro-L-phenylalanine] | – | – | – | – | – | Decrease in Blood Glucose (%) (Female ICR-CD-1 mice; [7]): 21.5%; Degree of Elevation of Blood Insulin (Female ICR-CD-1 mice; [7]): 20.6; Decrease in Blood Glucose (%) (Female ICR-CD-1 mice; [8]): 44.7%; Degree of Elevation of Blood Insulin (Female ICR-CD-1 mice; [8]): 21.8
10 | O=C(N[C@@H](Cc1ccccc1)C(=O)N[C@@H](Cc1ccccc1)C(=O)O)OCc1ccccc1 [Sample S-7, N-benzyloxycarbonyl-L-phenylalanyl-L-phenylalanine] (Cbz-Phe-Phe-OH) | 40.6 | – | – | – | – | Decrease in Blood Glucose (%) (Female ICR-CD-1 mice; [1]): 70.0%; Degree of Elevation of Blood Insulin (Female ICR-CD-1 mice; [1]): 7.72; Degree of Elevation of Blood Insulin (Female ICR-CD-1 mice; [2]): 9.35; LD50 (mg/kg) (Female CD-1(ICR) Mice; [9]): > 3,000 mg/kg
11 | O=C(CCCc1ccccc1)N[C@@H](Cc1ccccc1)C(=O)O [Sample S-8, N-(4-phenylbutyrol)-L-phenylalanine] | – | 57.1 | 7.31 | 35.6 | 9.64 | –
12 | O=C(COc1ccccc1)N[C@H](Cc1ccccc1)C(=O)O [Sample S-9, N-phenoxyacetyl-D-phenylalanine] | 29.7 | – | – | – | – | Decrease in Blood Glucose (%) (Female ICR-CD-1 mice; [1]): 37.3%; Degree of Elevation of Blood Insulin (Female ICR-CD-1 mice; [1]): 11.8; Degree of Elevation of Blood Insulin (Female ICR-CD-1 mice; [2]): 2.67
13 | O=C(N[C@@H](Cc1ccccc1)C(=O)N[C@@H](Cc1ccc(O)cc1)C(=O)O)OCc1ccccc1 [Sample S-10, N-benzyloxycarbonyl-L-phenylalanyl-L-tyrosine] (Cbz-Phe-Tyr-OH) | – | 61.5 | 41.9 | 43.4 | 4.85 | LD50 (mg/kg) (Female CD-1(ICR) Mice; [9]): > 3,000 mg/kg
14 | O=C(COc1cccc2ccccc12)N[C@@H](Cc1ccccc1)C(=O)O [Sample S-11, N-[(1-naphthoxy)acetyl]-L-phenylalanine] | – | 54.0 | 11.8 | 59.7 | 5.07 | LD50 (mg/kg) (Female CD-1(ICR) Mice; mouse, in vivo): > 4,000 mg/kg
15 | O=C(COc1ccc2ccccc2c1)N[C@@H](Cc1ccccc1)C(=O)O [Sample S-12, N-[(2-naphthoxy)acetyl]-L-phenylalanine] | – | 50.8 | 6.05 | 66.8 | 5.62 | LD50 (mg/kg) (Female CD-1(ICR) Mice; mouse, in vivo): > 4,000 mg/kg
16 | O=C(COc1ccc(Cl)cc1)N[C@@H](Cc1ccccc1)C(=O)O [Sample S-13, N-[(4-chlorophenoxy)acetyl]-L-phenylalanine] | – | – | – | – | – | Decrease in Blood Glucose (%) (Female ICR-CD-1 mice; [10]): 31.9%; Degree of Elevation of Blood Insulin (Female ICR-CD-1 mice; [10]): 43.4; Decrease in Blood Glucose (%) (Female ICR-CD-1 mice; [11]): 18.5%; Degree of Elevation of Blood Insulin (Female ICR-CD-1 mice; [11]): 9.82; LD50 (mg/kg) (Female CD-1(ICR) Mice; mouse, in vivo): > 3,500 mg/kg
17 | O=C(N[C@@H](Cc1ccccc1)C(=O)O)c1ccccc1 [Sample S-14, N-benzoyl-L-phenylalanine] | – | 35.2 | 6.31 | 37.8 | 3.31 | –
18 | O=C(N[C@@H](Cc1ccc(O)cc1)C(=O)O)OCc1ccccc1 [Sample S-16, N-benzyloxycarbonyl-L-tyrosine] | – | 31.0 | 50.0 | – | 2.99 | Decrease in Blood Glucose (%) (Female ICR-CD-1 mice; po, 6 mg, 1 h): 27.2%
19 | O=C(N[C@H](Cc1ccccc1)C(=O)N[C@@H](Cc1ccccc1)C(=O)O)OCc1ccccc1 [Sample S-20, N-benzyloxycarbonyl-D-phenylalanyl-L-phenylalanine] (Cbz-[dF]-Phe-OH) | – | – | – | – | – | Decrease in Blood Glucose (%) (Female ICR-CD-1 mice; [10]): 22.4%; Degree of Elevation of Blood Insulin (Female ICR-CD-1 mice; [10]): 2.33; Decrease in Blood Glucose (%) (Female ICR-CD-1 mice; [11]): 32.7%; Degree of Elevation of Blood Insulin (Female ICR-CD-1 mice; [11]): 2.46
20 | O=C(N[C@@H](Cc1ccccc1)C(=O)N[C@H](Cc1ccccc1)C(=O)O)OCc1ccccc1 [Sample S-21, N-benzyloxycarbonyl-L-phenylalanyl-D-phenylalanine] (Cbz-Phe-[dF]-OH) | – | 42.6 | 14.9 | 32.7 | 5.26 | –
21 | O=C(C=Cc1ccc(Cl)cc1)N[C@@H](Cc1ccccc1)C(=O)O [Sample S-24, N-(4-chlorocinnamoyl)-L-phenylalanine] | – | – | – | – | – | Decrease in Blood Glucose (%) (Female ICR-CD-1 mice; [10]): 37.1%; Degree of Elevation of Blood Insulin (Female ICR-CD-1 mice; [10]): 5.46; Decrease in Blood Glucose (%) (Female ICR-CD-1 mice; [11]): 27.4%; Degree of Elevation of Blood Insulin (Female ICR-CD-1 mice; [11]): 3.04
22 | O=C(C=Cc1ccc(Cl)cc1)N[C@H](Cc1ccccc1)C(=O)O [Sample S-25, N-(4-chlorocinnamoyl)-D-phenylalanine] | – | – | – | – | – | Decrease in Blood Glucose (%) (Female ICR-CD-1 mice; [10]): 34.9%; Decrease in Blood Glucose (%) (Female ICR-CD-1 mice; [11]): 29.5%
23 | Cc1ccc(C=CC(=O)N[C@@H](Cc2ccccc2)C(=O)O)cc1 [Sample S-27, N-(4-methylcinnamoyl)-L-phenylalanine] | – | – | – | – | – | Decrease in Blood Glucose (%) (Female ICR-CD-1 mice; [10]): 61.5%; Degree of Elevation of Blood Insulin (Female ICR-CD-1 mice; [10]): 7.76; Decrease in Blood Glucose (%) (Female ICR-CD-1 mice; [11]): 34.4%; Degree of Elevation of Blood Insulin (Female ICR-CD-1 mice; [11]): 1.0
24 | O=C(C=Cc1cccc(C(F)(F)F)c1)N[C@@H](Cc1ccccc1)C(=O)O [Sample S-30, N-(3-trifluoromethylcinnamoyl)-L-phenylalanine] | 44.4 | – | – | – | – | Decrease in Blood Glucose (%) (Female ICR-CD-1 mice; [1]): 48.8%
25 | O=C(N[C@@H](Cc1ccccc1)C(=O)O)C(F)=Cc1ccccc1 [Sample S-31, N-(α-fluorocinnamoyl)-L-phenylalanine] | 72.5 | – | – | – | – | Decrease in Blood Glucose (%) (Female ICR-CD-1 mice; [1]): 33.5%
26 | COc1cccc(C=CC(=O)N[C@@H](Cc2ccccc2)C(=O)N[C@@H](Cc2ccccc2)C(=O)O)c1 [Sample S-32, N-(3-methoxycinnamoyl)-L-phenylalanyl-L-phenylalanine] | 23.8 | – | – | – | – | Degree of Elevation of Blood Insulin (Female ICR-CD-1 mice; [2]): 4.55
27 | Cc1ccc(S(=O)(=O)N[C@@H](Cc2ccccc2)C(=O)O)cc1 [Sample S-33, N-(4-toluenesulfonyl)-L-phenylalanine] | – | 51.6 | 18.1 | 21.4 | 6.48 | –
28 | O=C(C=Cc1cccc(C(F)(F)F)c1)N[C@H](Cc1ccccc1)C(=O)O [Sample S-36, N-(3-trifluoromethylcinnamoyl)-D-phenylalanine] | 49.1 | – | – | – | – | Decrease in Blood Glucose (%) (Female ICR-CD-1 mice; [1]): 52.0%
